Test results published in patent US12403117B2, “Stable pharmaceutical composition containing non-steroidal anti-inflammatory drug derivative” (ZHEJIANG YUEJIA PHARMACEUTICALS CO., LTD, priority 2017, dated 2025).
Values joined by “and” are separate entries in the source; they are usually repeats but may differ in a detail not shown here. Equal values may be shown once.

Columns and labels:
Type in all cases: physicochemical
[1] = Solubility (physical and chemical properties, Table 1)
From the text: (§1) The physical and chemical properties of the synthesized crystals of 2-(diethylamino)-ethyl-2-acetoxybenzoate hydrochloride are shown in Table 1.

[2] = Acidity: pH value of the aqueous solution; settings: 25 ± 0.5° C.
Dissociation constant = assay: Dissociation constant
From the text: as §1

[3] = Repose angle by injection method
From the text: The “repose angle” formed by stacking the powders or particles reflects its fluidity. The term “repose angle” generally refers to the maximum angle formed by the free slope of the layer of the stacked powders or particles and the horizontal plane. The smaller the repose angle, the smaller the friction between the powders or particles, and the better the fluidity. Better fluidity is more convenient for dissolution and use of the powders or particles. Methods for measuring the repose angle are well known to those skilled in the art. The repose angle is measured by an “injection method” in the examples of the invention, that is, the particles flow out of the funnel and fall on the plane to form a cone, and the base angle is the repose angle.

[4] = Stability of aqueous solution of 2-(diethylamino)-ethyl-2-acetoxybenzoate hydrochloride at 2-8° C. (HPLC); settings: 5 g in 50 mL sterile water
Method: 5 g of 2-(diethylamino)-ethyl-2-acetoxybenzoate hydrochloride prepared in Example 1 was dissolved in 50 mL of sterile water and placed at 2-8° C. Samples were taken on day 0, month 0.5, month 1, month 2 and month 3 to detect the contents of the main drug and specific impurities (salicylic acid-(2-diethylaminoethyl ester) hydrochloride, acetylsalicylic acid, salicylic acid) and related substances, wherein the content of the main drug and specific impurities were detected by high-performance liquid chromatography (external standard method), and the related substances were detected by high-performance liquid chromatography (principal component self-control method without correction factors). The conditions of HPLC were as follows: • Column: Inertsil ODS-3 (250×4.6 mm, 5 μm) or equivalent • Flow rate: 1.0 ml/min • Column temperature: 33° C. • Wavelength: 276 nm, 303 nm • Injection volume: 10 μl • Mobile phase: water (15 ml of triethylamine+3.5 ml of 10% tetrabutylammonium hydroxide, adding water to 1000 ml): methanol: glacial acetic acid (63:27:10).

[5] = Stability of aqueous solution of 2-(diethylamino)-ethyl-2-(4-isobutylphenyl) propionate hydrochloride at 25° C.±2° C. (HPLC); settings: 10 g in 50 mL sterile water
Method: 10 g of 2-(diethylamino)-ethyl-2-(4-isobutylphenyl) propionate hydrochloride prepared in Example 5 was dissolved in 50 mL of sterile water and placed at 25° C.±2° C. Samples were taken on day 0, week 1, week 2, week 3 and week 4 to detect the contents of the main drug and specific impurities (ibuprofen), wherein the content of the main drug and specific impurities were detected by high-performance liquid chromatography (area normalization). The conditions of HPLC were as follows: • Column: Inertsil ODS-3 (250×4.6 mm, 5 μm) or equivalent • Flow rate: 1.0 ml/min • Column temperature: 33° C. • Wavelength: 264 nm • Injection volume: 10 μl • Mobile phase: (3.065 g sodium acetate+150 ml acetic acid+375 ml water): acetonitrile (35:65).

CCN(CC)CCOC(=O)c1ccccc1OC(C)=O.Cl [2-(diethylamino)-ethyl-2-acetoxybenzoate hydrochloride]
Solubility ([1]; in acetone): slightly soluble | Solubility ([1]; in ethyl acetate and ether): insoluble | Solubility ([1]; in water): extremely soluble | Acidity: pH value of the 2% aqueous solution [2]: product at 25 ± 0.5 °C is 4.0-6.0 | Dissociation constant (Dissociation constant): 8.82 | Repose angle [3]: 42° | Main Drug ([4]; month 0): 99.48% | Salicylic acid (impurity) ([4]; month 0): 0.0028% | Salicylic acid-(2-diethylaminoethyl ester) hydrochloride (impurity) ([4]; month 0): 0.51% | Main Drug ([4]; month 0.5): 99.32% | Salicylic acid (impurity) ([4]; month 0.5): 0.0035% | Salicylic acid-(2-diethylaminoethyl ester) hydrochloride (impurity) ([4]; month 0.5): 0.67% | Acetylsalicylic acid (impurity) ([4]; month 1): 0.018% | Main Drug ([4]; month 1): 97.59% | Salicylic acid (impurity) ([4]; month 1): 0.0044% | Salicylic acid-(2-diethylaminoethyl ester) hydrochloride (impurity) ([4]; month 1): 2.38% | Acetylsalicylic acid (impurity) ([4]; month 2): 0.033% | Main Drug ([4]; month 2): 94.86% | Salicylic acid (impurity) ([4]; month 2): 0.012% | Salicylic acid-(2-diethylaminoethyl ester) hydrochloride (impurity) ([4]; month 2): 5.09% | Acetylsalicylic acid (impurity) ([4]; month 3): 0.042% | Salicylic acid (impurity) ([4]; month 3): 0.049% | Main Drug ([4]; month 3, hydrochloride): 86% and 86.55%

CCN(CC)CCOC(=O)C(C)c1ccc(CC(C)C)cc1.Cl (stereo not shown) [2-(diethylamino)-ethyl-2-(4-isobutylphenyl) propionate hydrochloride]
Repose angle [3]: 40 ° | Ibuprofen (impurity) ([5]; week 0): Not detected | Main Drug ([5]; week 0): 100.00% | Unknown peak ([5]; week 0): Not detected | Ibuprofen (impurity) ([5]; week 1): 0.39% | Main Drug ([5]; week 1): 99.51% | Unknown peak ([5]; week 1): 0.10% | Ibuprofen (impurity) ([5]; week 2): 1.69% | Main Drug ([5]; week 2): 98.12% | Unknown peak ([5]; week 2): 0.19% | Ibuprofen (impurity) ([5]; week 3): 4.04% | Main Drug ([5]; week 3): 95.83% | Unknown peak ([5]; week 3): 0.13% | Unknown peak ([5]; week 4): 0.21%
